Experimental data from patent US20230414826A1, “FIBRIN HYDROGELS” (Mayo Foundation for Medical Education and Research, priority 2020, published 2023).

Target: T1, fibrinogen and thrombin (clinical standard from the manufacturer) (Homo sapiens, UniProt P02671+P02675+P02679)
T1 sequence (P02671 20-629 limits assumed): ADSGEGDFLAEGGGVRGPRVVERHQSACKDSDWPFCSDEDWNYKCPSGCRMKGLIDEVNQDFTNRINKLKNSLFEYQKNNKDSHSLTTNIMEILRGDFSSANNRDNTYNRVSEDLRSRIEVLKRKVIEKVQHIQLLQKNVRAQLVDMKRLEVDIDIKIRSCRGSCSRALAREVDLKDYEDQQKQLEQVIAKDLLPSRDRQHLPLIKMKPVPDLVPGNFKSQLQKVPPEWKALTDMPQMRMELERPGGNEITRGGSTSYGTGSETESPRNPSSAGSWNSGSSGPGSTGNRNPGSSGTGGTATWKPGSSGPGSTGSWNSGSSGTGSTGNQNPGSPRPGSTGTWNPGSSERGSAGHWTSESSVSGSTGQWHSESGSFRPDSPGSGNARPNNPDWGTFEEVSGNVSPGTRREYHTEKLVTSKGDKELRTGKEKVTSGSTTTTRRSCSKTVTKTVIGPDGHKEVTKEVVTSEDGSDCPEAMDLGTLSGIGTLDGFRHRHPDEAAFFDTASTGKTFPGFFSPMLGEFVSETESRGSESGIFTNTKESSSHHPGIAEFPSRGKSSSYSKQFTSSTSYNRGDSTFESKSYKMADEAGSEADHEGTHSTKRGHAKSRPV
T1 sequence (P02675 31-491): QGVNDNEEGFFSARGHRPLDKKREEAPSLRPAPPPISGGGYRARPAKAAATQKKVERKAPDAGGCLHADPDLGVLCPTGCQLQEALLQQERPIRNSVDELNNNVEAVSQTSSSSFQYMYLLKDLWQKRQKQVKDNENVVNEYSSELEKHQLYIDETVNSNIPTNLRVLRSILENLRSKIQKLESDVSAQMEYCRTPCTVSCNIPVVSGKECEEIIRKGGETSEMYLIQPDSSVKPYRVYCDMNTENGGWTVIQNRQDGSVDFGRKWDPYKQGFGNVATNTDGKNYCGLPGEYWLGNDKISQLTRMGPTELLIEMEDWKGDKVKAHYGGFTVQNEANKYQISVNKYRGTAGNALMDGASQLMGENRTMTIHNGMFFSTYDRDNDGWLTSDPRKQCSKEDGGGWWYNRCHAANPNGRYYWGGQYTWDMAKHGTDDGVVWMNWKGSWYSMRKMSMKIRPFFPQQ
T1 sequence (P02679 27-433 limits assumed): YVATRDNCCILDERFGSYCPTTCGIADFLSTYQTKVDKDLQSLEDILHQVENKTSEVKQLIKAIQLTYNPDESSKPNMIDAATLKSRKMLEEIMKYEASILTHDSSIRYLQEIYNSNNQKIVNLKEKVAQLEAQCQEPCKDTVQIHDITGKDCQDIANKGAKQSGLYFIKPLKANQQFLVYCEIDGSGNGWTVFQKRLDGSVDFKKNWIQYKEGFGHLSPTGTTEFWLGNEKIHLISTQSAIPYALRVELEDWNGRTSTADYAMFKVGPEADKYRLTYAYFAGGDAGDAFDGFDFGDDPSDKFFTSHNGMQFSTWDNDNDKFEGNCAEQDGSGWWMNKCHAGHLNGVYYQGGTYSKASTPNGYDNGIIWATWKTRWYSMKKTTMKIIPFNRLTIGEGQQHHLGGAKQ
Assay: Fibrinogen clotting assay with coagulation analyzer (Clauss method), clinical fibrinogen standard
Type: biochemical
Conditions: clinical standard samples diluted in 1× citrate buffer + TB (4.58 mM), pH 7.4, 37° C.
Experimental: The effect of various chemical compounds on clotting time was determined. […] The chemical additives were added to either clinical fibrinogen standards (Stago; Parsippany NJ) or a 1:20 dilution of the Evicel Biologically Active Component 2 (Ethicon), which is a fibrinogen solution (60 mg/mL) and served as the various samples. The same lot of BAC2 was used within each experiment to minimize lot-lot variability.
The Clauss method was used to measure fibrin clotting time. The clotting assay was performed using the Stago STart® Coagulation Analyzer (Stago; Parsippany, NJ) per manufacturer's protocol. The Stago STart uses a mechanical, viscosity-based detection of clotting, independent of sample color and turbidity. Per the protocol, samples were diluted 1:20 in Owren-Koller buffer (Stago) and allowed to equilibrate for 5 minutes at 37° C. Each sample was loaded in a cuvette with a magnetic bead.
In efforts to improve the visibility of fibrin gels during surgical implantation, it was observed that the inclusion of TB in the gelation mixture improved handling of the liquid phase of the gelation reaction. […] A coagulation analyzer is a specialized clinical instrument that is used to quantify fibrinogen concentrations in patient blood samples via the Clauss Method (Clauss, Acta Haematol., 17:237-46 (1957)). […]

SMILES: Cc1cc(-c2ccc(/N=N/c3c(S(=O)(=O)O)cc4cc(S(=O)(=O)O)cc(N)c4c3O)c(C)c2)ccc1/N=N/c1c(S(=O)(=O)O)cc2cc(S(=O)(=O)O)cc(N)c2c1O [TB, Trypan Blue]
- gelation time (clotting time): 14.6 ± 1.5 s
